The values that follow come from patent US20260102387A1, “IMMUNOSUPPRESSIVE COMPOUNDS” (UNIVERSITÄT BASEL, priority 2022, published 2026).

For assay [1], the system named is coronin 1 promoter. Nature of the assay: Fluorescence-based screening assay: coronin 1 promoter driven GFP in RBL cells (microplate reader / microscopy). The assay is classed as cell-based. The settings on record: RBL, 48 h, read-out: GFP values (%). On the procedure: The murine coronin 1 promoter sequences of SEQ ID NO: 1-6 were each cloned into a plasmid lacking a promoter (promoterless) but containing a destabilized Green Fluorescence Protein (GFP) cassette. Rat Basophil Leukemia (RBL) cells were transfected with the plasmids, stable GFP expressing cells were enriched, incubated with various compounds and assessed for coronin 1 promoter inhibition by assessing green fluorescence values (FIG. 2).
The plasmids were independently transfected into immune cells (Rat basophil Leukemia, RBL cells) to generate green and red fluorescent RBL cells that were subsequently enriched by means of flow cytometry. These cells were then mixed in equal ratio (1:1) and incubated in a 96 well plate at 100,000 cells/well in a volume of 200 μl of phenol red free RPMI supplemented with 8% fetal calf serum, L-glutamate and antibiotics (penicillin, […]) from available chemical libraries. At defined time points (8 h, 24 h and 48 h), the GFP and RFP fluorescence was measured using a 96 well microplate reader (Synergy, BioTek Instruments). […] Selected compounds show different levels of modulation of coronin 1 promoter driven GFP and CMV promoter driven RFP fluorescence. GFP and RFP fluorescence were analyzed with a microplate reader upon incubation with the top coronin 1 promoter inhibiting compounds. Shown are percentage of GFP reduction (left column) and percentage of RFP reduction (right column) for the compounds at 5 μg/ml concentration at 48 h. Cycloheximide (CHX) serves as positive control whereas media and DMSO serve as negative controls. […] Cells were imaged using a fluorescence microscope to validate fluorescence inhibition (FIG. 3A) and as well assess morphology and viability (in addition to GFP down regulation confirmation). In addition, quantitative Polymerase Chain Reaction (qPCR) for coronin 1 mRNA transcripts reveal reduction with compound 11 (FIG. 3B). The primers used for the qPCR on RBL cells are listed below as follows;

For assay [2], the system named is early cytomegalovirus promoter. The assay can be described thus: Screening assay control: CMV promoter driven RFP in RBL cells (microplate reader). The assay is classed as cell-based. Particulars: 48 h. Here is the method:
As an unrelated promoter, the early cytomegaloviral promoter element was cloned into a promoterless Red Fluorescence Protein (RFP) expression plasmid. Rat Basophil Leukemia (RBL) cells were transfected with the plasmid, stable RFP expressing cells enriched, incubated with various compounds and were assessed for red fluorescence values. Analyzing the inhibition of an unrelated promoter (in this case, early cytomegalovirus promoter) that drove Red Fluorescence Protein (RFP) expression assessed non-specificity of the compound under analysis.
The plasmids were independently transfected into immune cells (Rat basophil Leukemia, RBL cells) to generate green and red fluorescent RBL cells that were subsequently enriched by means of flow cytometry. These cells were then mixed in equal ratio (1:1) and incubated in a 96 well plate at 100,000 cells/well in a volume of 200 μl of phenol red free RPMI supplemented with 8% fetal calf serum, L-glutamate and antibiotics (penicillin, streptomycin) and various compounds (3 and 5 μg/ml concentrations) from available chemical libraries. At defined time points (8 h, 24 h and 48 h), the GFP and RFP fluorescence was measured using a 96 well microplate reader (Synergy, BioTek Instruments). […] Selected compounds show different levels of modulation of coronin 1 promoter driven GFP and CMV promoter driven RFP fluorescence. GFP and RFP fluorescence were analyzed with a microplate reader upon incubation with the top coronin 1 promoter inhibiting compounds. Shown are percentage of GFP reduction (left column) and percentage of RFP reduction (right column) for the compounds at 5 μg/ml concentration at 48 h. Cycloheximide (CHX) serves as positive control whereas media and DMSO serve as negative controls. […] Cells were imaged using a fluorescence microscope to validate fluorescence inhibition (FIG. 3A) and as well assess morphology and viability (in addition to GFP down regulation confirmation). In addition, quantitative Polymerase Chain Reaction (qPCR) for coronin 1 mRNA transcripts reveal reduction with compound 11 (FIG. 3B). The primers used for the qPCR on RBL cells are listed below as follows;

Assay [3] has as its system coronin 1 promoter. The assay can be described thus: EC50 analysis for coronin 1 promoter driven GFP inhibition by flow cytometry in RBL cells. The assay is classed as cell-based. The settings on record: RBL cells, 48-65 h, flow cytometry. Here is the method: RBL cells that had been incubated with the indicated calcium channel blockers (amlodipine (3.125 μM) and verapamil (8 μM) concentrations for 48 h were analyzed by flow cytometry for any alteration in coronin 1 promoter driven GFP fluorescence. The results reveal no effect of calcium channel blockers on coronin 1 promoter activity (FIG. 4).
(§1) RBL cells expressing GFP under coronin 1 promoter and optionally with RBL cells expressing RFP under CMV promoter were mixed in equal numbers and incubated with the compounds at indicated concentrations for 48-65 h and analyzed by flow cytometry for alteration in coronin 1 promoter (GFP fluorescence), CMV promoter (RFP fluorescence) values. In addition, the cells were labelled with live-dead marker for assessing cell viability status by flow cytometry. Cycloheximide (CHX) serves as positive control and DMSO serves as negative controls. Effective Concentration (EC50) values for coronin 1 promoter inhibition via GFP fluorescence analysis, non-specific promoter inhibition via CMV promoter driven-RFP fluorescence analysis and cell viability via live/dead staining as a measure for toxicity in flow cytometry for compounds (10-22 and 50a-65a) are shown in Table 6 and Table 7. Based on the EC50 analysis of the inhibition of coronin 1 promoter driven GFP fluorescence the (4S,7R)-configurated eutomers were identified (Structures FIG. 9A-C). This is exemplified for compounds containing two stereocenters by eutomers 11c and 13a. […] Subsequent EC50 evaluations (Table 7) were performed with compound 13a as standard for relative potency normalized to a value of 1.00 (relative potency calculated as [EC50 GFP inhibition 13a]/[EC50 GFP inhibition compound of interest]).
For orientation: A flow cytometer gives signals particle by particle.

A further assay concerns RBL cells. Nature of the assay: Cell viability by live-dead staining (cytotoxicity), flow cytometry. The assay is classed as cell-based, Rat. Particulars: cell viability via live/dead staining, 48-65 h, read-out: EC50 Toxicity. Here is the method:
as §1

A further assay concerns CMV promoter. Nature of the assay: EC50 analysis for CMV promoter driven RFP inhibition (non-specific activity) by flow cytometry in RBL cells. The assay is classed as cell-based, cytomegalovirus. Particulars: 48-65 h, read-out: EC50 RFP alteration. Here is the method:
as §1

[4] abbreviates: 5 μg/ml, microplate reader, DMSO = 100.
[5] abbreviates: 5 μg/ml, microplate reader, DMSO = 100, read-out: RFP values (%).

SMILES strings stand for the structures. Where two headings read alike, the source gives them in different places.

Take `CC1=C(C(=O)OCC2CCCO2)C(c2ccsc2)C2=C(C[C@@H](c3cccs3)CC2=O)N1` (mixture of isomers) [Comp. 7, tetrahydro-2-furanylmethyl-2-methyl-5-oxo-7-(2-thienyl)-4-(3-thienyl)-1,4,5,6,7,8-hexahydro-3-quinolinecarboxylate]: the figures for the activity at 5 µg/mL (in the assay on coronin 1 promoter [1] (setting [4]); in assay [2] (setting [5])) were 77% and 95%, respectively.
For `COc1ccccc1C1CC(=O)C2=C(C1)NC(C)=C(C(=O)OCC1CCCO1)C2c1cccs1` (centres unmarked) [Comp. 1, tetrahydro-2-furanylmethyl-7-(2-methoxyphenyl)-2-methyl-5-oxo-4-(2-thienyl)-1,4,5,6,7,8-hexahydro-3-quinolinecarboxylate] the same measures were 35% and 66%.
The corresponding values for `CC1=C(C(=O)OCC2CCCO2)C(c2cccc([N+](=O)[O-])c2)C2=C(CC(c3cccs3)CC2=O)N1` (centres unmarked) [Comp. 6, tetrahydro-2-furanylmethyl-2-methyl-4-(3-nitrophenyl)-5-oxo-7-(2-thienyl)-1,4,5,6,7,8-hexahydro-3-quinolinecarboxylate] are 68% and 75%.
The corresponding values for `COC(=O)C1=C(C)NC2=C(C(=O)CC(c3cccs3)C2)C1c1cccc(O)c1` (centres unmarked) [Comp. 5, methyl-4-(3-hydroxyphenyl)-2-methyl-5-oxo-7-(2-thienyl)-1,4,5,6,7,8-hexahydro-3-quinolinecarboxylate] are 74% and 108%.
Consider `COc1ccccc1C1CC(=O)C2=C(C1)NC(C)=C(C(=O)OCC1CCOCC1)C2c1cccc(O)c1` (centres unmarked) [compound 18, (tetrahydro-2H-pyran-4-yl)methyl 4-(3-hydroxyphenyl)-7-(2-methoxyphenyl)-2-methyl-5-oxo-1,4,5,6,7,8-hexahydroquinoline-3-carboxylate], for which the EC50 was 200 nM with coronin 1 promoter [3] (RBL); greater than 2.5 µM with RBL cells (Rattus norvegicus, RBL); greater than 2500 nM with CMV promoter.
In the case of `CCSCCOC(=O)C1=C(C)NC2=C(C(=O)CC(c3ccccc3OC)C2)C1c1ccsc1` (centres unmarked) [Comp. 3, 2-(ethylthio)ethyl-7-(2-methoxyphenyl)-2-methyl-5-oxo-4-(3-thienyl)-1,4,5,6,7,8-hexahydro-3-quinolinecarboxylate], the results for the activity at 5 µg/mL (with coronin 1 promoter [1] (setting [4]); in assay [2] (setting [5])) were 63% and 80%, respectively.
Consider `C[C@@H]1C[C@@H]([C@H](O)CC2CC(=O)NC(=O)C2)C(=O)[C@@H](C)C1` [CHX, cycloheximide, reference compound], for which the activity at 5 µg/mL in the assay on coronin 1 promoter [1] is 21%; in assay [2] (read-out: RFP values (%)), 40%.
Regarding `COC(=O)C1=C(C)NC2=C(C(=O)CC(c3ccc(Cl)cc3)C2)C1c1cccc(O)c1` (centres unmarked) [Comp. 22, methyl 7-(4-chlorophenyl)-4-(3-hydroxyphenyl)-2-methyl-5-oxo-1,4,5,6,7,8-hexahydroquinoline-3-carboxylate], the activity at 5 µg/mL in the assay with coronin 1 promoter [1] (setting [4]) amounted to 55%; in assay [2] (setting [5]), 70%.
As for `COC(=O)C1=C(C)NC2=C(C(=O)CC(c3ccccc3OC)C2)C1c1ccc(F)cc1` (centres unmarked) [Comp. 2, methyl-4-(4-fluorophenyl)-7-(2-methoxyphenyl)-2-methyl-5-oxo-1,4,5,6,7,8-hexahydro-3-quinolinecarboxylate], the activity at 5 µg/mL in the assay on coronin 1 promoter [1] (setting [4]) was 52%; in assay [2] (setting [5]) it was 81%.
For the compound `COC(=O)C1=C(C)NC2=C(C(=O)C[C@H](c3ccccc3OC)C2)[C@@H]1c1cccc(O)c1` [11c, methyl (4S, 7R)-4-(3-hydroxyphenyl)-7-(2-methoxyphenyl)-2-methyl-5-oxo-1,4,5,6,7,8-hexahydro-3-quinolinecarboxylate], the EC50 in the assay on coronin 1 promoter [3] is 175 nM; in the assay with RBL cells, greater than 9 µM.
For `COC(=O)C1=C(C)NC2=C(C(=O)CC(c3ccc(OC)cc3)C2)C1c1cccc(O)c1` (centres unmarked) [Comp. 8, methyl-4-(3-hydroxyphenyl)-7-(4-methoxyphenyl)-2-methyl-5-oxo-1,4,5,6,7,8-hexahydro-3-quinolinecarboxylate], the activity at 5 µg/mL stood at 87% in the assay with coronin 1 promoter [1] (setting [4]) and 97% in assay [2] (setting [5]).
`COCCCCOC(=O)C1=C(C)NC2=C(C(=O)CC(c3ccccc3OC)C2)C1c1cccc(O)c1` (centres unmarked) [compound 17, 4-methoxybutyl 4-(3-hydroxyphenyl)-7-(2-methoxyphenyl)-2-methyl-5-oxo-1,4,5,6,7,8-hexahydroquinoline-3-carboxylate]: the EC50 is 100 nM in the assay with coronin 1 promoter [3] (RBL) and greater than 5 µM with RBL cells (Rattus norvegicus, RBL).
The corresponding values for `COc1ccccc1C1CC(=O)C2=C(C1)NC(C)=C(C(=O)OC1COC1)C2c1cccc(O)c1` (centres unmarked) [compound 20, oxetan-3-yl 4-(3-hydroxyphenyl)-7-(2-methoxyphenyl)-2-methyl-5-oxo-1,4,5,6,7,8-hexahydroquinoline-3-carboxylate] are 500 nM and greater than 2.5 µM.
As to `COC(=O)C1=C(C)NC2=C(C(=O)CC(c3ccccc3OC)C2)C1c1ccccc1` (centres unmarked) [compound 14, methyl 7-(2-methoxyphenyl)-2-methyl-5-oxo-4-phenyl-1,4,5,6,7,8-hexahydroquinoline-3-carboxylate], the EC50 in the assay with coronin 1 promoter [3] (RBL) was 250 nM; in the assay on RBL cells (Rattus norvegicus, RBL), greater than 6 µM.
For `COC(=O)C1=C(C)NC2=C(C(=O)C[C@@H](c3ccccc3OC)C2)[C@H]1c1cccc(O)c1` [11d, methyl-4-(3-hydroxyphenyl)-7-(2-methoxyphenyl)-2-methyl-5-oxo-1,4,5,6,7,8-hexahydro-3-quinolinecarboxylate], the EC50 is 2000 nM with coronin 1 promoter [3] (RBL) and greater than 18 µM in the assay with RBL cells (Rattus norvegicus, RBL).
As for `COC(=O)C1=C(C)NC2=C(C(=O)CC(c3ccccc3OC)C2)C1c1cccs1` (centres unmarked) [Comp. 9, methyl-7-(2-methoxyphenyl)-2-methyl-5-oxo-4-(2-thienyl)-1,4,5,6,7,8-hexahydro-3-quinolinecarboxylate], the activity at 5 µg/mL in the assay with coronin 1 promoter [1] (setting [4]) was found to be 58%; in assay [2] (setting [5]), 97%.
For `COC(=O)C1=C(C)NC2=C(C(=O)CC(c3ccccc3)C2)C1c1cccc(O)c1` (centres unmarked) [Comp. 4, methyl 4-(3-hydroxyphenyl)-2-methyl-5-oxo-7-phenyl-1,4,5,6,7,8-hexahydroquinoline-3-carboxylate] the same measures were 60% and 85%.
